The structures appear in SMILES notation. Where two headings read alike, the source gives them in different places.

16 compounds from patent publication US20200253996A1, “TCTP INHIBITING AGENTS FOR THE TREATMENT OF PROLIFERATIVE DISEASES, INFECTIOUS DISEASES, ALLERGIES, INFLAMMATIONS AND/OR ASTHMA” (UNIVERSITE PARIS-SUD, priority 2017, published 2020) can be followed below.

Data set [1] concerns the target T1, TCTP (Homo sapiens, UniProt P13693).
T1 sequence (P13693 1-172): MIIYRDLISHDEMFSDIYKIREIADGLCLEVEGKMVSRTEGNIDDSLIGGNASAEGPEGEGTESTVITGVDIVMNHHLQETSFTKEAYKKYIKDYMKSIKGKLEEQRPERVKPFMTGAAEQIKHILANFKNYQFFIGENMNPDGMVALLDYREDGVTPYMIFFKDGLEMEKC
Put plainly: Interaction with TCTP by surface plasmon resonance (SPR), Biacore T200. The data set is classed as binding. The settings on record: for Kd: TCTP bonded to chip, Biacore T200. Here is the method: The interaction of the synthesized molecules with TCTP was evaluated by the surface plasmon resonance (SPR) technique using the Biacore T200 apparatus.
A beam of polarized monochromatic light illuminates a glass interface between two media with different refractive indices, since the angle of incidence is greater than the limiting angle, all the light is reflected, a phenomenon known as total internal reflection. There is then no refraction but an electromagnetic component of the light, the evanescent wave propagates over a distance equivalent to its own wavelength, perpendicular to the interface. At the level of the gold leaf located at the interface between the two media, a resonance between the gold plasmons and the evanescent wave is observed, which results in a loss of light energy in the beam reflected at a precise angle called the resonance angle. This angle is sensitive to the refractive index of the medium wherein the evanescent wave propagates.
A continuous measurement of the variations in the angle of refraction is carried out using a micro-refractometer producing a sensorgram that allows the fixation of the molecules injected into the microfluidic cell to be monitored in real time. The resonance signal is expressed in resonance units (RU) and reports what is present at a given time in the microfluidic cell.
Thus, TCTP is bonded to a chip consisting of a layer of dextran on a gold foil, which in turn is placed on a glass plate. This layer is sandwiched between a microfluidic cell and a prism.
The synthesized compounds are passed through the microfluidic cell and their interaction is evaluated through the received SPR signal (Table 1).

The test system of data set [2] is human cancer line HCT116 (colorectal carcinoma). Put plainly: Cytotoxic activity on HCT116, 72 hours incubation. Type of data set: cell-based. The settings on record: for % (viability) at 1 μM: HCT116, 1 μM; for % (viability) at 10 μM: HCT116, 10 μM; for antiproliferative activity profile (in words): compared with sertraline; for IC50: Homo sapiens, HCT-116, HCT116, 72 hours incubation, concentration inducing 50% cell death. Here is the method:
The cytotoxic activity of the prepared compounds was evaluated on the human cancer line HCT116 (colorectal carcinoma). The selected line was incubated at 37° C. in the presence of one of the prepared compounds added to the culture medium at various concentrations. The inhibitory concentration inducing 50% cell death (IC50) was determined after 72 hours incubation for each compound (Table 1).

The subject of data set [3] is human HCT116 cells. Put plainly: Inhibition of cell growth, CellTiter Glo assay. The following applies: for GI50 / CC50: Homo sapiens. Here is the method:
The viability and proliferation of human HCT116 cells is measured using the “CellTiter Glo®” assay (Promega), which is a luminescent measure of the number of living cells. Sertraline and AC070 were tested at 10 concentrations and results are expressed as GI50, TGI, LC50 and IC50 relative to control cells (DMSO).
The CellTiter-Glo® assay is a homogeneous method for determining the number of viable cells in culture based on a quantification of the ATP present, an indicator of metabolically active cells. The homogeneous test procedure involves the addition of a single reagent (the CellTiter-Glo® reagent) directly to the cultured cells in serum-enriched medium.
The results of the test are reported in the following Tables 2 and 3 (Table 2: sertraline and Table 3: AC070): […]
On the technique in general: ATP-based viability assays read luminescence as a measure of living cells.

A word on the Kd: it is the concentration at which binding is half-saturated. `c1ccc2c(c1)CCCC2c1ccc2[nH]ccc2c1` (centres unmarked) [AC082, 5-(1,2,3,4-tetrahydronaphthalen-1-yl)-1H-indole] registered a dissociation constant (Kd) in data set [1] of 123 ± 33 µM. Also, in data set [2], the “% (viability) at 1 μM” value is 9 ± 1% and the “% (viability) at 10 μM” value was 33%.
In data set [1], `CC(=O)NC1CCC(c2cccc(S[C@@H]3OC(COC(C)=O)[C@@H](OC(C)=O)C(OC(C)=O)C3OC(C)=O)c2)c2ccccc21` (stereo in doubt) [AC268-cis, Cis-(2S,3R,4S,5R,6R)-2-((3-((4S)-4-acetamido-1,2,3,4-tetrahydronaphthalen-1-yl)phenyl)thio)-6-(acetoxymethyl)tetrahydro-2H-pyran-3,4,5-triyl triacetate] registered a Kd of 170 ± 31 µM.
Still for that read-out and setting: as for `CC(=O)N[C@@H]1CC[C@H](c2ccc(C(=O)O)cc2)c2ccccc21` (relative stereo) [VM055-cis, Cis-4-(4-acetamido-1,2,3,4-tetrahydronaphthalen-1-yl)benzoic acid], the figure is 176 µM.
In data set [1], `COc1ccc2c(c1)CCCC2c1ccc(Cl)c(Cl)c1` (centres unmarked) [AC095, 1-(3,4-dichlorophenyl)-6-methoxy-1,2,3,4-tetrahydronaphthalene] showed a Kd of 150 µM. The “% (viability) at 10 μM” value in data set [2] is recorded as 10 μM: 40% (viability).
Take `CC(=O)NC1CCC(c2ccc(Br)cc2)c2ccccc21` (mixture of isomers) [AC088, N-(4-(4-bromophenyl)-1,2,3,4-tetrahydronaphthalen-1-yl)acetamide]: binding in data set [1] was put at a Kd of 135 ± 37 µM. The “% (viability) at 10 μM” value in data set [2] is 10 μM: 33% (viability).
For the compound `c1ccc2c(c1)OCCC2c1ccc2ccccc2c1` (centres unmarked) [AC069, 4-(naphthalen-2-yl)chroman], in data set [1], the “affinity for TCTP (in words)” value is “excellent affinity” and the equilibrium dissociation constant (Kd) is 24 ± 16 µM. Moreover, in data set [2], the “% (viability) at 1 μM” value was 0%, the “% (viability) at 10 μM” value is given as 33% and the “antiproliferative activity profile (in words)” value was “identical to that of sertraline”.
On to `CC(=O)NC1CCC(c2cc(SC3OC(COC(C)=O)C(OC(C)=O)C(OC(C)=O)C3OC(C)=O)c(C(=O)Nc3cccc4cccnc34)c(S[C@@H]3OC(COC(C)=O)[C@@H](OC(C)=O)C(OC(C)=O)C3OC(C)=O)c2)c2ccccc21` (stereo in doubt) [AC249-cis, Cis-(2S,3R,4S,5R,6R)-2-((5-((4S)-4-acetamido-1,2,3,4-tetrahydronaphthalen-1-yl)-2-(quinolin-8-ylcarbamoyl)-3-(((2R,3S,4R,5S,6S)-3,4,5-triacetoxy-6-(acetoxymethyl)tetrahydro-2H-pyran-2-yl)thio)phenyl)thio)-6-(acetoxymethyl)tetrahydro-2H-pyran-3,4,5-triyl triacetate], for which, in data set [1], the Kd turned out to be 8 ± 2 µM.
The term GI50 denotes the concentration at which growth is held to half of that of the control. For `CC(=O)NC1CCC(c2ccc3ccccc3c2)c2ccccc21` (centres unmarked) [AC070, N-(1,2,3,4-tetrahydro-[1,2′-binaphthalen]-4-yl) acetamide], the “cytotoxicity compared with sertraline” value in data set [3] is on record as “less cytotoxic than sertraline”. In data set [3] (HCT116), the “activity on cell growth compared with sertraline” value is “slightly less active than sertraline”. For the same compound, the TGI50 1 in data set [3] (HCT116, CellTiter Glo, determination 1) was 1.48 µM. For the same compound, the TGI50 2 in data set [3] (HCT116, CellTiter Glo, determination 2) was determined as 1.44 µM. Besides, in data set [3] (HCT116, CellTiter Glo, determination 3), the TGI50 3 stood at 1.41 µM. Also, the TGI50 Mean in data set [3] (HCT116, CellTiter Glo, mean) amounted to 1.44 µM. The TGI50 Median in data set [3] (HCT116, CellTiter Glo, median) worked out at 1.44 µM. Moreover, the GI50 came out at 0.909 µM in data set [3] (HCT-116, read-out: GI50 1); 0.881 µM in data set [3] (HCT-116, read-out: GI50 2); 0.878 µM in data set [3] (HCT-116, read-out: GI50 3); 0.89 µM in data set [3] (HCT-116, read-out: GI50 Mean); 0.889 µM in data set [3] (HCT-116, read-out: GI50 Median); 0.889 µM in data set [3] (HCT-116, read-out: cell growth inhibition constant GI50). Also, the CC50 was 2.34 µM in data set [3] (HCT-116, read-out: LC50 1); 2.3 µM in data set [3] (HCT-116, read-out: LC50 2); 2.2 µM in data set [3] (HCT-116, read-out: LC50 3); 2.28 µM in data set [3] (HCT-116, read-out: LC50 Mean); 2.28 µM in data set [3] (HCT-116, read-out: LC50 Median); 2.2 µM in data set [3] (HCT-116, read-out: lethal concentration LC50).
A word on the IC50: it is the concentration that gives 50% inhibition. `c1ccc2c(c1)SCCC2c1ccc2ccccc2c1` (centres unmarked) [AC085, 4-(naphthalen-2-yl)thiochroman]: in data set [1], the “affinity for TCTP (in words)” value is on record as “excellent affinity” and the Kd was determined as 30 µM. In addition, in data set [2], the IC50 stood at 25 ± 1 µM and the “antiproliferative activity profile (in words)” value is reported as “identical to that of sertraline”.
For the compound `CC(=O)N[C@@H]1CC[C@H](c2ccc(C(=O)NC3OC(COC(C)=O)C(OC(C)=O)C(OC(C)=O)C3OC(C)=O)cc2)c2ccccc21` (stereo in doubt) [VM060-cis, Cis-(2R,3R,4S,5R,6R)-2-(4-acetamido-1,2,3,4-tetrahydronaphthalen-1-yl)benzamido)-6-(acetoxy-methyl)tetrahydro-2H-pyran-3,4,5-triyl triacetate], the Kd in data set [1] is 26 ± 8 µM. Besides, the “% (viability) at 10 μM” value in data set [2] is reported as 10 μM: 15% (viability).
On to `CC(=O)NC1CCC(c2cccc(I)c2)c2ccccc21` (mixture of isomers) [AC087, N-(4-(3-iodophenyl)-1,2,3,4-tetrahydronaphthalen-1-yl)acetamide], for which, in data set [1], the “affinity for TCTP (in words)” value is “excellent affinity” and binding was put at a Kd of 16 ± 11 µM. In data set [2], the “% (viability) at 10 μM” value was 10 μM: 33% (viability) and the “antiproliferative activity profile (in words)” value was “identical to that of sertraline”.
As for `Clc1ccc(C2CCCc3ccccc32)cc1Cl` (centres unmarked) [AC096, 1-(3,4-dichlorophenyl)-1,2,3,4-tetrahydronaphthalene], in data set [1], the “affinity for TCTP (in words)” value is on record as “excellent affinity” and binding was put at a Kd of 14 ± 7 µM. In data set [2], the “% (viability) at 1 μM” value is given as 1 μM: 29 ± 3% and the “antiproliferative activity profile (in words)” value is given as “identical to that of sertraline”.
As to `Ic1cccc(C2CCCc3ccccc32)c1` (centres unmarked) [AC041, 1-(3-iodophenyl)-1,2,3,4-tetrahydronaphthalene], in data set [1], the “affinity for TCTP (in words)” value is given as “excellent affinity” and the Kd came out at 59 ± 30 µM. Moreover, in data set [2], the midpoint of inhibition, the IC50, lay at 9 ± 1.2 µM and the “antiproliferative activity profile (in words)” value is “identical to that of sertraline”.
Consider `CC(=O)N[C@@H]1CC[C@H](c2ccc(C(=O)OC(C)C)cc2)c2ccccc21` (relative stereo) [AC056, Cis-isopropyl 4-(4-acetamido-1,2,3,4-tetrahydronaphthalen-1-yl)benzoate], for which, in data set [1], the “affinity for TCTP (in words)” value is “excellent affinity” and binding was put at a Kd of 28.5 ± 10 µM. In addition, in data set [2], half-maximal inhibition (IC50) was put at 17 ± 3 µM and the “antiproliferative activity profile (in words)” value was “identical to that of sertraline”.
The compound `COc1ccc2c(c1)CCCC2c1cccc(Cl)c1` (centres unmarked) [AC101, 1-(3-chlorophenyl)-6-methoxy-1,2,3,4-tetrahydronaphthalene] had a Kd in data set [1] of 145 ± 34 µM. This compound came in with an IC50 in data set [2] of 7 ± 0.4 µM.
Take `CC(C)OC(=O)c1ccc(C2CCCc3ccccc32)cc1` (centres unmarked) [AC034, Isopropyl 4-(1,2,3,4-tetrahydronaphthalen-1-yl)benzoate]: in data set [1], the “affinity for TCTP (in words)” value is on record as “excellent affinity” and binding was put at a Kd of 29 ± 7 µM. In data set [2], half-maximal inhibition (IC50) required 25 ± 9 µM and the “antiproliferative activity profile (in words)” value was “identical to that of sertraline”.
